Experimental data published in US11084847B2, “Polyamide compound and use thereof” (SICHUAN KELUN-BIOTECH BIOPHARMACEUTICAL CO., LTD., priority 2016, dated 2021).
Like-named read-outs stand apart in the source and are kept apart here.

How the values were obtained:
MOR = MOR (Homo sapiens, UniProt P35372); experiment: Opioid receptor selectivity, radioligand competition binding (3H-DAMGO) on cell membranes
Method: (§1) The selectivity of the compounds of the invention for κ opioid receptors was determined by measuring the inhibitory effect of the compounds of Examples on the […] of KOR, MOR, and DOR.
(§2) The compounds of Examples at different concentrations were incubated with the cell membrane with high expression of KOR, MOR, DOR and the corresponding radioligand (KOR: 3H-diprenophrine; MOR: 3H-DAMGO; DOR: 3H-DADLE) for 1 h, the compounds of Examples competed with the radioligands for binding to KOR, MOR, DOR. After the incubation, Cell harvest was used to collect cell membranes onto a Unifilter-96 GF/C filter plate, and the unbound radioligands were washed away. The plate was placed in a 50-degree oven for 1 h, and finally the scintillation solution Microscint 20 cocktail was added and the isotope signal was detected by MicroBeta2 Reader.
(§3) According to the intensity of the isotope signal at different concentrations, the IC50 was calculated by means of fitting with a four-parameter equation, and the Ki value was calculated.
(§4) The Ki value was calculated according to the formula Ki=IC50/(1+[radioligand]/Kd), and Kd was the equilibrium dissociation constant of radioligand.

[1] = Ability of compounds to pass through the blood-brain barrier (plasma and brain tissue concentration); format: in vivo; conditions: rat, male rats, iv 1 mg/kg; for concentration at 5 min: 5 min after administration; for concentration at 15 min: 15 min after administration; for concentration at 30 min: 30 min after administration; for concentration at 60 min: 60 min after administration
Method: After peripheral intravenous administration of the compound of each Example to the animal, samples of peripheral plasma and brain tissue were taken to determine the concentration of the compound in the peripheral plasma and brain tissue.
After intravenously injected with the compound of Example 5 at 1 mg/kg to male rats, samples of plasma and brain tissues were taken at various time points, and the contents of the test compound in the peripheral plasma and brain tissue were determined.

male ICR mice = experiment: Acetic acid-induced writhing test in mice; format: in vivo; design: ED50: unit not given here
Method: The analgesic effect of the compound of the invention was evaluated by measuring the ED50 of the compounds of Examples in the acetic acid-induced writhing test in mice.
The commercial glacial acetic acid solution was diluted with physiological saline to 0.6% glacial acetic acid solution. The male ICR mice were randomly separated into the drug group and the model group (to which physiological saline was administration). 15 minutes after iv administration, 0.6% acetic acid solution was intraperitoneally injected at 10 ml/kg, and the mice was immediately recorded with DV camera for 15 min. After the recording, the number of writhes of the mice within 15 min was counted from the video by blind method, the inhibition rate for the writhes was calculated according to Formula (I), and the ED50 of the compound was calculated according to Formula (II).
(I) The inhibition rate for the writhes was calculated by the formula: Inhibition rate (%)=(the number of writhes in a model group−the number of writhes in a drug group)/the number of writhes in a model group*100.
(II) The ED50 was calculated by the formula:
[formula] wherein Xm was the logarithm of the highest dose, d was the difference in the logarithm of two adjacent doses, p was the inhibition rate for each dose group, pm was the highest-dose inhibition rate, and pn was the lowest-dose inhibition rate.

[2] = Pharmacokinetic (PK) study in rats; format: in vivo; conditions: male SD rats, intravenous, 1 mg/kg
Method: The pharmacokinetic profile of the compounds of Examples was studied by intravenous administration of the compounds of Examples to male SD rats. The dose for IV administration was 1 mg/kg, and the solvent was 5% DMSO: 5% solutol: 90% physiological saline. After IV administration, blood samples were collected at different time points for PK study. Plasma were treated by protein precipitation and then analyzed by LC-MS/MS.
In LC-MS/MS, mass spectrum was API 5500, and liquid chromatography was Shimadzu LC-30AD system. The column used for the test groups of Compound 3 and Compound 4 was Thermo C18 column (4.6 mm×100 mm, 3 μm); for mobile phases, phase A was water+0.1% formic acid, and phase B was methanol; the flow rate was 0.8 mL/min, and the column temperature was 40° C. The column used for the test group of Compound 5 was Agela AQ C18 column (2.1 mm×50 mm, 1.9 μm); for mobile phases, phase A was water+0.05% formic acid+5 mM acetic acid ammonium, and phase B was methanol+0.05% formic acid; the flow rate was 0.6 mL/min, and the column temperature was 40° C. The ion source used was the ESI source in positive ion mode, and the scanning mode was Multiple Reaction Monitoring (MRM).

[3] = molecular target: T1, human κ-opioid receptor (KOR) (Homo sapiens, UniProt P41145); experiment: κ-opioid receptor agonistic effect (inhibition of adenylate cyclase, cAMP assay); format: cell-based; conditions: CHO cells stably expressing human KOR; NKH477-stimulated cAMP; four-parameter fit; read-out: ED50 (the source's name)
T1 construct: expressed in transfected cells
Method: The efficacy of the compounds of the invention as κ-opioid receptor agonists was determined by measuring the ability of the compounds of Examples to inhibit adenylate cyclase activity.
Cell culture: hamster ovary cells CHO stably expressing human κ-opioid receptor (KOR) gene were cultured in MEMα plus nucleosides medium (Invitrogen) containing 5% FBS.
Stimulation: the test compound was 4-fold diluted in a gradient manner to obtain 11 concentrations, and 100 nl of each was transferred to a 384-well plate, and then a stimulating solution (5 uL) containing NKH477 (Tocris) was added; the cells were digested, re-suspended, and counted; and then the cells (5 uL) were added to wells, mixed gently, and incubated at 37° C. for 30 min.
Detection: cAMP Assay Kit (Cisbio) was used, cAMP-D2 and Anti-cAMP-Cryptate were added separately, and the resultant mixture was incubated for 1 h at room temperature. The plate was read using envision (Perkin Elmer) and EC50 was obtained by means of fitting with a four-parameter equation.

KOR = KOR (Homo sapiens, UniProt P41145); experiment: Opioid receptor selectivity, radioligand competition binding (3H-diprenophrine) on cell membranes
Method: as §1, §2, §3, §4

DOR = DOR (Homo sapiens, UniProt P41143); experiment: Opioid receptor selectivity, radioligand competition binding (3H-DADLE) on cell membranes
Method: as §1, §2, §3, §4

[4] = brain, read-out: Concentration in brain tissue
[5] = plasma, read-out: Concentration in peripheral plasma

## COCCOCCNCCCC[C@@H](NC(=O)[C@@H](CC(C)C)NC(=O)[C@@H](Cc1ccccc1)NC(=O)[C@H](N)Cc1ccccc1)C(=O)N1CCC(N)(C(=O)O)CC1 [Example 5, 4-amino-1-((R)-2-((R)-2-((R)-2-((R)-2-amino-3-phenylpropanamido)-3-phenylpropanamido)-4-methylpentanamido)-6-((2-(2-methoxyethoxy)ethyl)amino)hexanoyl)piperidin-4-carboxylic acid]
MOR; Ki=IC50/(1+[radioligand]/Kd), read-out: MOR Ki
  Ki: > 7180 nM
MOR; radioligand 3H-DAMGO, 1 h incubation, read-out: MOR IC50
  IC50: > 20000 nM
[1]; [4]
  concentration at 5 min: 0 ng/mL
  concentration at 15 min: 0 ng/mL
  concentration at 30 min: 0.2 ng/mL
  concentration at 60 min: 0 ng/mL
[1]; [5]
  concentration at 5 min: 1310 ng/mL
  concentration at 15 min: 716 ng/mL
  concentration at 30 min: 386 ng/mL
  concentration at 60 min: 136 ng/mL
Male ICR mice; acetic acid-induced writhing, mice, iv
  analgesic effect (in words): significant analgesic effect
Male ICR mice; iv administration 15 min before 0.6% acetic acid ip, writhes counted within 15 min
  ED50: 0.017
[2]
  pharmacokinetic profile (in words): good exposure amount and Cmax
[2]; rat, plasma
  AUC(0-t): 783 ng·h/mL
  Cmax: 1690 ng/mL
  Vd: 0.53 L/kg
  half-life: 16.8 min
[3]
  EC50: 0.05 nM
KOR; KOR versus MOR and DOR binding
  KOR selectivity (in words): excellent KOR selectivity
KOR; Ki=IC50/(1+[radioligand]/Kd), read-out: KOR Ki
  Ki: 0.02 nM
KOR; radioligand 3H-diprenophrine, 1 h incubation, read-out: KOR IC50
  IC50: 0.05 nM
DOR; Ki=IC50/(1+[radioligand]/Kd), read-out: DOR Ki
  Ki: > 12000 nM
DOR; radioligand 3H-DADLE, 1 h incubation, read-out: DOR IC50
  IC50: > 20000 nM
